According to patent publication US20100048536A1, “Novel Substituted Diaryl Azepine Derivatives as Integrin Ligands” (priority 2000, published 2010):

Target: T1, integrin αvβ3 (Homo sapiens, UniProt P05106+P06756)
T1 construct: from tissue; host or cells: human placenta
Assay: Integrin αvβ3 assay (competition with vitronectin for binding to solid phase-bound integrin αvβ3)
Conditions: integrin αvβ3 from human placenta, qualitative ranking only
Description: For the identification and assessment of integrin αvβ3 ligands, a test system was used which was based on competition between the natural integrin αvβ3 ligand vitronectin and the test substance for binding to solid phase-bound integrin αvβ3
• Microtiter plates coated with 250 ng/ml of integrin αvβ3 in 0.05 M NaHCO3 pH 9.2; 0.1 ml/well; • saturation with 1% powdered milk/assay buffer; 0.3 ml/well; 0.5 h/RT • 3× washing with 0.05% Tween 20/assay buffer • test substance in 0.1% powdered milk/assay buffer, 50 μl/well+0 μg/ml or 2 μg/ml of human vitronectin (Boehringer Ingelheim T007) in 0.1% powdered milk/assay buffer, 50 μl/well; 1 h/RT • 3× washing with 0.05% Tween 20/assay buffer • 1 μg/ml of anti human vitronectin antibody coupled to peroxidase (Kordia SAVN-APHRP) in 0.1% powdered milk/assay buffer; 0.1 ml/well; 1 h/RT • 3× washing with 0.05% Tween 20/assay buffer • 0.1 ml/well of peroxidase substrate • stop reaction with 0.1 ml/well of 2 M H2SO4 • measurement of the absorption at 450 nm
Integrin αvβ3: Human placenta is solubilized with Nonidet and integrin αvβ3 affinity-purified on a GRGDSPK matrix (elution with EDTA). Impurities due to integrin αIIbβ3 and human serum albumin, and the detergent and EDTA are removed by anion-exchange chromatography. […]

## CN1C(=O)c2ccccc2C(CC(=O)O)c2ccc(OCCCCNc3ccccn3)cc21 (stereo not shown) [Example I, {5-Methyl-6-oxo-3-{4-(2-pyridinylamino)-butoxy]-6,11-dihydro 5H-dibenzo[b,e]azepin-11-yl}acetic acid]
  IC50 values (concentration of the ligand at which 50% of the ligand is displaced): best result
